# Results reported in USRE39591E1, “6-O-substituted ketolides having antibacterial activity” (Abbott Laboratories, priority 1996, dated 2007).
# Test system: up to 32 different microorganisms
# Assay: in vitro antibacterial activity (MIC), agar dilution on Brain Heart Infusion (BHI) agar with Steers replicator
# Assay type: cell-based
# Conditions: unit assumed
# Method in brief: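 Up to 32 strains were replicator-inoculated (1:100, or 1:10 for Micrococcus and Streptococcus) onto BHI agar plates holding serial compound dilutions and kept 20-24 h at 35-37° C. Plates were read visually against drug-free growth controls, with erythromycin A run alongside; MIC was the lowest concentration giving no growth, slight haze or sparse colonies.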
# [1] = Candida albicans CCH 442 (code TT)
# [2] = Enterococcus faecism ATCC 8043 (code II)
# [3] = Escherichia coli DC-2 (code SS)
# [4] = Escherichia coli JUHL (code QQ)
# [5] = Haemophilis influenzae DILL AMP R (code WW)
# [6] = Micrococcus luteus ATCC 4698 (code PP)
# [7] = Micrococcus luteus ATCC 9341 (code OO)
# [8] = Mycobacterium smegmatis ATCC 114 (code UU)
# [9] = Nocardia Asteroides ATCC9970 (code VV)
# [10] = Staphylococcus aureus 1775 (code GG)
# [11] = Staphylococcus aureus A5177 (code BB)
# [12] = Staphylococcus aureus A-5278 (code CC)
# [13] = Staphylococcus aureus ATCC 6538P (code AA)
# [14] = Staphylococcus aureus CMX 553 (code FF)
# [15] = Staphylococcus aureus CMX 642A (code DD)
# [16] = Staphylococcus aureus NCTC10649M (code EE)
# [17] = Staphylococcus epidermidis 3519 (code HH)
# [18] = Streptococcus Pneumonia 5649 (code ZZA)
# [19] = Streptococcus Pneumonia 5979 (code ZZ)
# [20] = Streptococcus Pneumonia ATCC6303 (code XX)
# [21] = Streptococcus Pneumonia GYR 1171 (code YY)
# [22] = Streptococcus agalactiae CMX 508 (code KK)
# [23] = Streptococcus bovis A-5169 (code JJ)
# [24] = Streptococcus pyogenes 930 (code MM)
# [25] = Streptococcus pyogenes EES61 (code LL)
# [26] = Streptococcus pyogenes PIU 2548 (code NN)
smiles,measurement,setting,value
"CCC1OC(=O)C(C)C(=O)C(C)C(OC2OC(C)CC(N(C)C)C2O)C(C)(OCC=Cc2cnc3ccc(OC)cc3c2)CC(C)C(=O)C(C)C2NC(=O)OC12C (stereo not shown) [Example 209, R is —CH2CH═CH-(6-methoxy-3-quinolyl)]",MIC,organism code AA,0.05 µg/mL
same,MIC,organism code CC,> 100 µg/mL
same,MIC,organism code DD,0.1 µg/mL
same,MIC,organism code EE,0.1 µg/mL
same,MIC,organism code FF,0.1 µg/mL
same,MIC,organism code GG,> 100 µg/mL
same,MIC,organism code HH,0.1 µg/mL
same,MIC,organism code II,0.02 µg/mL
same,MIC,organism code JJ,0.01 µg/mL
same,MIC,organism code KK,0.01 µg/mL
same,MIC,organism code LL,0.01 µg/mL
same,MIC,organism code MM,3.1 µg/mL
same,MIC,organism code NN,0.1 µg/mL
same,MIC,organism code OO,0.01 µg/mL
same,MIC,organism code PP,0.2 µg/mL
same,MIC,organism code QQ,100 µg/mL
same,MIC,organism code RR,0.2 µg/mL
same,MIC,organism code SS,> 100 µg/mL
same,MIC,organism code TT,> 100 µg/mL
same,MIC,organism code UU,0.78 µg/mL
same,MIC,organism code VV,0.02 µg/mL
same,MIC,organism code WW,2 µg/mL
same,MIC,organism code XX,0.03 µg/mL
same,MIC,organism code YY,0.03 µg/mL
same,MIC,organism code ZZ,4 µg/mL
same,MIC,organism code ZZA,0.5 µg/mL
"CC[C@H]1OC(=O)[C@H](C)C(=O)[C@H](C)[C@@H](O[C@@H]2O[C@H](C)C[C@H](N(C)C)[C@H]2O)[C@@](C)(OCC=Cc2cnc3ccccc3c2)C[C@@H](C)C(=O)[C@H](C)[C@H]2NC(=O)O[C@@]21C [Example 104, Compound of Formula (IX): L is CO, T is NH, R is —CH2CH═CH-(3-quinolyl)]",MIC,[1],> 100 µg/mL
same,MIC,[2],0.05 µg/mL
same,MIC,[3],50 µg/mL
same,MIC,[4],50 µg/mL
same,MIC,Escherichia coli SS (code RR),0.39 µg/mL
same,MIC,[5],2 µg/mL
same,MIC,[6],0.05 µg/mL
same,MIC,[7],≤ 0.005 µg/mL
same,MIC,[8],0.39 µg/mL
same,MIC,[9],0.01 µg/mL
same,MIC,[10],> 100 µg/mL
same,MIC,[11],0.05 µg/mL
same,MIC,[12],> 100 µg/mL
same,MIC,[13],0.05 µg/mL
same,MIC,[14],0.1 µg/mL
same,MIC,[15],0.05 µg/mL
same,MIC,[16],0.1 µg/mL
same,MIC,[17],0.05 µg/mL
same,MIC,[18],0.25 µg/mL
same,MIC,[19],16 µg/mL
same,MIC,[20],0.03 µg/mL
same,MIC,[21],0.03 µg/mL
same,MIC,[22],0.01 µg/mL
same,MIC,[23],0.01 µg/mL
same,MIC,[24],1.56 µg/mL
same,MIC,[25],≤ 0.005 µg/mL
same,MIC,[26],0.1 µg/mL
CCC1OC(=O)C(C)C(=O)C(C)C(OC2OC(C)CC(N(C)C)C2O)C(C)(OCC=Cc2ccc3c(c2)OCCO3)CC(C)C(=O)C(C)C2NC(=O)OC12C (stereo not shown) [Example 192],MIC,[1],> 100 µg/mL
same,MIC,[2],0.02 µg/mL
same,MIC,[3],100 µg/mL
same,MIC,[4],> 100 µg/mL
same,MIC,Escherichia coli SS (code RR),0.2 µg/mL
same,MIC,[5],4 µg/mL
same,MIC,[6],0.2 µg/mL
same,MIC,[7],0.01 µg/mL
same,MIC,[8],3.1 µg/mL
same,MIC,[9],0.1 µg/mL
same,MIC,[10],> 100 µg/mL
same,MIC,[11],0.1 µg/mL
same,MIC,[12],> 100 µg/mL
same,MIC,[13],0.1 µg/mL
same,MIC,[14],0.1 µg/mL
same,MIC,[15],0.1 µg/mL
same,MIC,[16],0.2 µg/mL
same,MIC,[17],0.1 µg/mL
same,MIC,[18],0.25 µg/mL
same,MIC,[19],> 128 µg/mL
same,MIC,[20],0.03 µg/mL
same,MIC,[21],0.03 µg/mL
same,MIC,[22],0.01 µg/mL
same,MIC,[23],0.01 µg/mL
same,MIC,[24],50 µg/mL
same,MIC,[25],0.01 µg/mL
same,MIC,[26],0.1 µg/mL
"CC[C@H]1OC(=O)[C@H](C)C(=O)[C@H](C)[C@@H](O[C@@H]2O[C@H](C)C[C@H](N(C)C)[C@H]2O)[C@@](C)(OCC(O)C#N)C[C@@H](C)C(=O)[C@H](C)[C@@H](O)[C@]1(C)O (stereo partly shown) [Example 175, Compound of Formula (VIII): X is O, R is CH2—CH(OH)—CN]",MIC,[1],> 100 µg/mL
same,MIC,[2],0.02 µg/mL
same,MIC,[3],> 100 µg/mL
same,MIC,[4],> 100 µg/mL
same,MIC,Escherichia coli SS (code RR),0.78 µg/mL
same,MIC,[5],64 µg/mL
same,MIC,[6],0.1 µg/mL
same,MIC,[7],0.05 µg/mL
same,MIC,[8],0.78 µg/mL
same,MIC,[9],0.39 µg/mL
same,MIC,[10],12.5 µg/mL
same,MIC,[11],0.39 µg/mL
same,MIC,[12],25 µg/mL
same,MIC,[13],0.2 µg/mL
same,MIC,[14],0.78 µg/mL
same,MIC,[15],0.78 µg/mL
same,MIC,[16],0.78 µg/mL
same,MIC,[17],0.78 µg/mL
same,MIC,[18],2 µg/mL
same,MIC,[19],8 µg/mL
same,MIC,[20],0.03 µg/mL
same,MIC,[21],0.03 µg/mL
same,MIC,[22],0.02 µg/mL
same,MIC,[23],0.02 µg/mL
same,MIC,[24],3.1 µg/mL
same,MIC,[25],0.01 µg/mL
same,MIC,[26],0.39 µg/mL
"CCC1OC(=O)C(C)C(=O)C(C)C(OC2OC(C)CC(N(C)C)C2O)C(C)(OCCCc2cnc3ccccc3c2)CC(C)C(=O)C(C)C2NC(=O)OC12C (stereo not shown) [Example 242, Compound of Formula (IX): L is CO, T is NH, R is —CH2CH2CH2(3-quinolyl)]",MIC,organism code AA,0.2 µg/mL
same,MIC,organism code CC,> 100 µg/mL
same,MIC,organism code DD,0.2 µg/mL
same,MIC,organism code EE,0.2 µg/mL
same,MIC,organism code FF,0.2 µg/mL
same,MIC,organism code GG,> 100 µg/mL
same,MIC,organism code HH,0.39 µg/mL
same,MIC,organism code II,0.1 µg/mL
same,MIC,organism code JJ,0.02 µg/mL
same,MIC,organism code KK,0.05 µg/mL
same,MIC,organism code LL,0.01 µg/mL
same,MIC,organism code MM,> 100 µg/mL
same,MIC,organism code NN,0.2 µg/mL
same,MIC,organism code OO,0.05 µg/mL
same,MIC,organism code PP,0.39 µg/mL
same,MIC,organism code QQ,> 100 µg/mL
same,MIC,organism code RR,0.78 µg/mL
same,MIC,organism code SS,> 100 µg/mL
same,MIC,organism code TT,> 100 µg/mL
same,MIC,organism code UU,0.78 µg/mL
same,MIC,organism code VV,0.39 µg/mL
same,MIC,organism code WW,8 µg/mL
same,MIC,organism code XX,0.03 µg/mL
same,MIC,organism code YY,0.03 µg/mL
same,MIC,organism code ZZ,> 128 µg/mL
same,MIC,organism code ZZA,0.25 µg/mL
